From patent publication US8772298B2, “Spirocyclic heterocycles medicaments containing said compounds, use thereof and method for their production” (Boehringer Ingelheim International GmbH, priority 2008, dated 2014)

The molecules below were run against T1, human EGF-R (Homo sapiens, UniProt P00533) (assay: Inhibition of EGFR-dependent proliferation (EGF-stimulated murine haematopoietic cell line expressing human EGF-R)). Conditions: 20 ng/ml human EGF, 48 hours at 37° C., Cell Titer 96 AQueous assay.
T1 construct: expressed in transfected cells
Type: cell-based
Protocol: A murine haematopoietic cell line is genetically modified so as to express functional human EGF-R. The proliferation of this cell line can therefore be stimulated by EGF.
The test is carried out as follows:
The cells are cultivated in RPMI/1640 medium. The proliferation is stimulated with 20 ng/ml of human EGF (Promega). To investigate the inhibitory activity of the compounds according to the invention these compounds are dissolved in 100% dimethylsulphoxide (DMSO) and added to the cultures in various dilutions, the maximum DMSO concentration being 1%. The cultures are incubated for 48 hours at 37° C.
In order to determine the inhibitory activity of the compounds according to the invention the relative cell number is measured in O.D. Units using the Cell Titer 96™ AQueous Non-Radioactive Cell Proliferation Assay (Promega). The relative cell number is calculated as a percentage of the control and the concentration of active substance which inhibits the proliferation of the cells by 50% (IC50) is derived therefrom.

T1 sequence (P00533 25-1210): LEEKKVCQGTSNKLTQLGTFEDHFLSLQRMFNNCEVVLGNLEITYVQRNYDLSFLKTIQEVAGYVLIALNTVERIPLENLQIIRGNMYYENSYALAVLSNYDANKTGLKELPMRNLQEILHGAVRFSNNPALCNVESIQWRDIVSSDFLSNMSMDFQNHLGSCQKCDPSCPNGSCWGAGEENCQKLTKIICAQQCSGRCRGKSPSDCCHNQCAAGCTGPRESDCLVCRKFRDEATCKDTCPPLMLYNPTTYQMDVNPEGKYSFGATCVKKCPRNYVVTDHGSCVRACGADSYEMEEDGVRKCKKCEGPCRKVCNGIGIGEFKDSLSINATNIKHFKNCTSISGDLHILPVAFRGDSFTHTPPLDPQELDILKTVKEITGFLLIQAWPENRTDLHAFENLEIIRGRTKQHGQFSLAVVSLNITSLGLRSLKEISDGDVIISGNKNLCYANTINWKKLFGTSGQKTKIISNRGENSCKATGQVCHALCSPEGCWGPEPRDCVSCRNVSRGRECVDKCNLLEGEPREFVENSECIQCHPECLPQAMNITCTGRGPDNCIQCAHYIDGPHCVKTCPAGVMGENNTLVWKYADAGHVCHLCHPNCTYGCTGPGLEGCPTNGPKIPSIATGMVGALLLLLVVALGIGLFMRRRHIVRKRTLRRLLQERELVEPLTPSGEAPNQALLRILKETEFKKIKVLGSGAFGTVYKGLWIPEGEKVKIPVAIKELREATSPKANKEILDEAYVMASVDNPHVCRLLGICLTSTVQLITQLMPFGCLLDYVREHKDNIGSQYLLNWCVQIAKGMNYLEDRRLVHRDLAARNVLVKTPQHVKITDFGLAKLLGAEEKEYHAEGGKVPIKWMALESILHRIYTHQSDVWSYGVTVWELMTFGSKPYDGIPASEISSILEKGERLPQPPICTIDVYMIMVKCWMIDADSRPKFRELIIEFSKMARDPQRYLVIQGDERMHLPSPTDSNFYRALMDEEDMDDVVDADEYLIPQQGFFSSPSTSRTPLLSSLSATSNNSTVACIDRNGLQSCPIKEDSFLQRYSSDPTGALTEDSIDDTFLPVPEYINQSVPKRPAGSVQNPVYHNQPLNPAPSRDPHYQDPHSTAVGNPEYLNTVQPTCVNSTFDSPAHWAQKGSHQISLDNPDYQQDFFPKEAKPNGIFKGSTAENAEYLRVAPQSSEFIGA

Row | IC50 | SMILES
1 | 2 nM | COc1cc2ncnc(Nc3cccc(Cl)c3F)c2cc1O[C@H]1CC[C@]2(CC1)C(=O)N(C)CCN2C [2(1), anti-9-[4-(3-chloro-2-fluoro-phenylamino)-7-methoxy-quinazolin-6-yloxy]-1,4-dimethyl-1,4-diaza-spiro[5.5]undecan-5-one]
2 | 1 nM | COc1cc2ncnc(Nc3cccc(Cl)c3F)c2cc1O[C@H]1CC[C@]2(CC1)C(=O)NCCN2C [Example 2, anti-9-[4-(3-chloro-2-fluoro-phenylamino)-7-methoxy-quinazolin-6-yloxy]-1-methyl-1,4-diaza-spiro[5.5]undecan-5-one]

Second part, the molecule before the results:

Row | SMILES | IC50
3 | COc1cc2ncnc(Nc3cccc(Cl)c3F)c2cc1O[C@H]1CC[C@@]2(CC1)NCCN(C)C2=O [1(1), anti-9-[4-(3-chloro-2-fluoro-phenylamino)-7-methoxy-quinazolin-6-yloxy]-4-methyl-1,4-diaza-spiro[5.5]undecan-5-one] | 2 nM
4 | COc1cc2ncnc(Nc3cccc(Cl)c3F)c2cc1O[C@H]1CC[C@]2(CC1)NCCNC2=O [1(2), syn-9-[4-(3-chloro-2-fluoro-phenylamino)-7-methoxy-quinazolin-6-yloxy]-1,4-diaza-spiro[5.5]undecan-5-one] | 2 nM
5 | COc1cc2ncnc(Nc3cccc(Cl)c3F)c2cc1O[C@H]1CC[C@@]2(CC1)NCCNC2=O [Example 1, anti-9-[4-(3-chloro-2-fluoro-phenylamino)-7-methoxy-quinazolin-6-yloxy]-1,4-diaza-spiro[5.5]undecan-5-one] | 4 nM
